pEC50: −log10 of the molar value.
Target: GPR120L receptor (Homo sapiens (Human), UniProt Q5NUL3)
Assay: Beta (β) arrestin 2 Interaction Assay (BRET assay), β-galactosidase enzyme fragment complementation
Type: cell-based
Conditions: CHO-K1 cells stably expressing the GPR120L receptor; β-arrestin recruitment; 2 hours incubation
Protocol: Beta (β) arrestin 2 Interaction Assay (BRET assay) was performed using CHO-K1 cells stably expressing the GPR120L receptor using β-galactosidase (Beta gal) enzyme fragment complementation assay. The measurement of GPR120 activation upon agonist activation was directly provided by β-arrestin recruitment. One day before the β-arrestin 2 assay, CHO-K1 cells were seeded and incubated overnight at 37° C. in a 5% CO2 humidified atmosphere. Cells were treated with the test compounds in the various concentrations ranging from 30 μM to 1 nM and incubated for 2 hours for GPCR (GPR120) activation. Extent of Arrestin recruitment was measured by adding detection reagents for Beta gal complementation assay and was further incubated for 1 hour. The chemi-luminescent signal was detected on Polar Star (BMG Labtech). The dose-response curve was analyzed using Sigma Plot/Graph Pad. The EC50 (concentration of the test compounds where 50% of compounds' maximal activity is observed) values were calculated from the dose-response curve.

Sequence of GPR120L receptor (Q5NUL3 other isoform, or with tags, fused parts or gaps): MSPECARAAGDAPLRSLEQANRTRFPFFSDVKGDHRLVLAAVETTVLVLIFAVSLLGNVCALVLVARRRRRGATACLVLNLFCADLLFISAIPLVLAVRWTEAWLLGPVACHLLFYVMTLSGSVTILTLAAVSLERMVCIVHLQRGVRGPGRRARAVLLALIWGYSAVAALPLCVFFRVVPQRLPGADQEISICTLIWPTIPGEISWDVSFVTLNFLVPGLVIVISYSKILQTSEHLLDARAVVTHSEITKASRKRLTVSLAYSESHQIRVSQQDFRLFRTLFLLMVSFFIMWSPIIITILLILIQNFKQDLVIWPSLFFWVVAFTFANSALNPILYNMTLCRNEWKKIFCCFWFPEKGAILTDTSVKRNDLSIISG

Compound | pEC50
N#CC1(c2ccc(-c3ccc(F)cc3COc3ccc(CCCC(=O)O)cc3)s2)CC1 [Example 1, 4-(4-((2-(5-(1-Cyanocyclopropyl)thiophen-2-yl)-5-fluorobenzyl)oxy)phenyl)butanoic acid] | 6.30 to 8.00
N#CC1(c2ccc(-c3ccc(F)cc3COc3ccc(CCC(=O)O)cc3)s2)CC1 [Example 2, 3-(4-((2-(5-(1-Cyanocyclopropyl)thiophen-2-yl)-5-fluorobenzyl)oxy)phenyl)propanoic acid] | 5.30 to 6.30
CC1(c2ccc(-c3ccc(F)cc3COc3ccc(CCCC(=O)O)cc3)cc2)CC1 [Example 3, 4-(4-((4-Fluoro-4′-(1-methylcyclopropyl)-[1,1′-biphenyl]-2-yl)methoxy)phenyl)butanoic acid] | 6.30 to 8.00
N#CC1(c2ccc(-c3ccc(F)cc3COc3ccc(CCCC(=O)O)cc3)cc2)CC1 [Example 4, 4-(4-((4′-(1-Cyanocyclopropyl)-4-fluoro-[1,1′-biphenyl]-2-yl)methoxy)phenyl)butanoic acid] | 6.30 to 8.00
N#CC1(c2ccc(-c3ccc(F)cc3COc3ccc(CCC(=O)O)cc3)cc2)CC1 [Example 5, 3-(4-((4′-(1-Cyanocyclopropyl)-4-fluoro-[1,1′-biphenyl]-2-yl)methoxy)phenyl)propanoic acid] | 6.30 to 8.00
N#CC1(c2ccc(-c3ccc(F)cc3COc3ccc(CCC(=O)O)cc3)cn2)CC1 [Example 6, 3-(4-((2-(6-(1-Cyanocyclopropyl)pyridin-3-yl)-5-fluorobenzyl)oxy)phenyl)propanoic acid] | 5.30 to 6.30
O=C(O)CCCc1ccc(OCc2cc(F)ccc2-c2ccc(C3CC3)cc2)cc1 [Example 7, 4-(4-((4′-Cyclopropyl-4-fluoro-[1,1′-biphenyl]-2-yl)methoxy)phenyl)butanoic acid] | 6.30 to 8.00
O=C(O)CCCc1ccc(OCc2cc(F)ccc2-c2ccc3c(c2)CCC3)cc1 [Example 8, 4-(4-((2-(2,3-Dihydro-1H-inden-5-yl)-5-fluorobenzyl)oxy)phenyl)butanoic acid] | 6.30 to 8.00
O=C(O)CCCc1ccc(OCc2cc(F)ccc2-c2ccc3c(c2)CCCC3)cc1 [Example 9, 4-(4-((5-Fluoro-2-(5,6,7,8-tetrahydronaphthalen-2-yl)benzyl)oxy)phenyl)butanoic acid] | 6.30 to 8.00
O=C(O)CCCc1ccc(OCc2cc(F)ccc2-c2ccc3c(c2)CC3)cc1 [Example 10, 4-(4-((2-(Bicyclo[4.2.0]octa-1(6),2,4-trien-3-yl)-5-fluorobenzyl)oxy)phenyl)butanoic acid] | 6.30 to 8.00
O=C(O)CCCc1ccc(OCc2cc(F)ccc2-c2ccc(C3CC3)s2)cc1 [Example 11, 4-(4-((2-(5-Cyclopropylthiophen-2-yl)-5-fluorobenzyl)oxy)phenyl)butanoic acid] | 6.30 to 8.00
O=C(O)CCCc1ccc(OCc2cc(F)ccc2-c2ccc(C3(O)CCC3)s2)cc1 [Example 12, 4-(4-((5-Fluoro-2-(5-(1-hydroxycyclobutyl)thiophen-2-yl)benzyl)oxy)phenyl)butanoic acid] | 5.30 to 6.30
O=C(O)CCc1ccc(OCc2cc(F)ccc2-c2ccc(C3COC3)cc2)cc1 [Example 13, 3-(4-((4-Fluoro-4′-(oxetan-3-yl)-[1,1′-biphenyl]-2-yl)methoxy)phenyl)propanoic acid] | 4.30 to 5.30
O=C(O)CCc1ccc(OCc2cc(F)ccc2-c2ccc(C3(O)CCC3)cc2)cc1 [Example 14, 3-(4-((4-Fluoro-4′-(1-hydroxycyclobutyl)-[1,1′-biphenyl]-2-yl)methoxy)phenyl)propanoic acid] | 5.30 to 6.30
CC1(C)CCC=C1c1ccc(-c2ccc(F)cc2COc2ccc(CCC(=O)O)cc2)cc1 [Example 15, 3-(4-((4′-(5,5-Dimethylcyclopent-1-en-1-yl)-4-fluoro-[1,1′-biphenyl]-2-yl)methoxy)phenyl)propanoic acid] | 4.30 to 5.30
O=C(O)CCCc1ccc(OCc2cc(F)ccc2-c2ccc(C3CCCCC3)cc2)cc1 [Example 16, 4-(4-((4′-Cyclohexyl-4-fluoro-[1,1′-biphenyl]-2-yl)methoxy)phenyl)butanoic acid] | 5.30 to 6.30

From patent publication US10227360B2, “Compounds for use as GPR120 agonists” (PIRAMAL ENTERPRISES LIMITED, priority 2014, dated 2019)
